Results from PMC10041525, “New Dual Inhibitors of Bacterial Topoisomerases with Broad-Spectrum Antibacterial Activity and In Vivo Efficacy against Vancomycin-Intermediate Staphylococcus aureus” (Journal of Medicinal Chemistry, 2023).
Read-outs that look alike come from different tables or passages of the source.

Legend:
[1] = system: 100 A. baumannii strains (50 MDR, 50 non-MDR); assay: MIC broth microdilution at IHMA Europe, panel of 100 strains; format: cell-based; settings: for MIC / MIC50 / MIC90: Acinetobacter baumannii; for MIC50: read-out: MIC 50; for MIC90: read-out: MIC 90
[2] = physchem; format: physicochemical
Experimental: For the PBS, 2.38 g of disodium hydrogen phosphate dodecahydrate, 0.19 g of potassium dihydrogen phosphate, and 8.0 g of sodium chloride were added to distilled water (900 mL), and the solution was mixed overnight. […] Samples were prepared by weighing the exact mass of solid compounds (about 1 mg), and then, the appropriate volume of PBS was added to reach the final concentration of ∼1 mg/mL. […] The supernatant was diluted 3× with a 1:1 mixture of 0.1% TFA in water and acetonitrile and analyzed by HPLC. For the 7-point calibration curves, concentrated stock solutions of the compounds were prepared at concentrations of 10 and 0.5 mM in DMSO, which were diluted with a 1:1 mixture of 0.1% TFA in water and acetonitrile to the desired final concentrations and analyzed by HPLC. Results are given in μM as an average value of two independent experiments. For details on calibration curves, concentrations, analytical method, and HPLC method, see the Supporting Information.
Thermodynamic solubility assay
To determine thermodynamic solubility of compounds in PBS, calibration curves for the assayed compounds were prepared using seven concentrations. First, DMSO stock solutions of compounds at 10 mM and 0.5 mM concentration were prepared and then diluted (0.1% TFA in […]
Quality control (QC) samples were diluted from stock solutions with a 1:1 mixture of 0.1% TFA in water and acetonitrile to final concentrations of 60 µM, 20 µM, and 2 µM (6 µM, 2 µM, and 0.2 µM for 7f or 0.6 µM, 0.2 µM, and 0.02 µM for 7g).
Analytical reversed-phase UHPLC analyses were performed on Thermo Scientific Dionex UltiMate 3000 modular system (Thermo Fisher Scientific Inc., MA, USA). Waters Acquity UPLC® HSS C18 SB column (2.1 × 50 mm, 1.8 μm; Waters, Milford, MA, USA) was used at T […]
Mobile phase consisted of 0.1% trifluoroacetic acid in ultrapure water (solvent A) and acetonitrile […]
The obtained data was processed in Chromeleon CDS software (Thermo Fisher Scientific Inc., […]
Analytical method was tested for accuracy, precision and linear rang. Accuracy was […]
(or 2 or 0.2) µM and 60 (or 6 or 0.6) µM) to their true values and expressed in (%). Values were […]
Method repeatability was determined by calculating the RSD from the separately prepared and analysed quality control samples (n = 3). […] Linearity of the […]
method (1 (or 0.1 or 0.01) µM to 100 (or 10 or 1) µM) was evaluated from the 7-point calibration […]
Solubility was determined in two independent experiments and results were calculated in […]

[3] = system: 3 sensitive and 7 MDR A. baumannii clinical isolates; assay: MIC, Hungarian clinical isolates and controls (384-well); format: cell-based

Cc1[nH]c(C(=O)Nc2nc3c(N4[C@@H]5CC[C@H]4COC5)cc(C(=O)O)cc3s2)c(Cl)c1Cl [7h, 4-((1R,5S)-3-Oxa-8-azabicyclo[3.2.1]octan-8-yl)-2-(3,4-dichloro-5-methyl-1H-pyrrole-2-carboxamido)benzo[d]thiazole-6-carboxylic Acid]
100%: Cumulative % at MIC [3]
1 µg/mL: MIC ([1]; A. baumannii IHMA 2193485, Venezuela 2020, Non-MDR, read-out: MIC) | MIC ([1]; A. baumannii IHMA 2206507, Taiwan 2020, Non-MDR, read-out: MIC) | MIC ([1]; MDR n = 50, read-out: MIN (minimum MIC)) | MIC ([1]; all isolates n = 100, read-out: MIN (minimum MIC)) | MIC ([1]; non-MDR n = 50, read-out: MIN (minimum MIC))
8 µg/mL: MIC ([1]; all isolates n = 100, read-out: MAX (maximum MIC; all strains inhibited)) | MIC ([1]; non-MDR n = 50, read-out: MAX (maximum MIC)) | MAX (maximum MIC; all strains inhibited) ([1]; all isolates n = 100)
2 µg/mL: MIC ([1]; A. baumannii IHMA 2156634, Turkey 2020, MDR, read-out: MIC) | MIC ([1]; A. baumannii IHMA 2156709, Turkey 2020, MDR, read-out: MIC) | MIC ([1]; A. baumannii IHMA 2177489, Lithuania 2020, MDR, read-out: MIC) | MIC ([1]; A. baumannii IHMA 2180134, Malaysia 2020, Non-MDR, read-out: MIC) | MIC ([1]; A. baumannii IHMA 2180142, Malaysia 2020, MDR, read-out: MIC) | MIC ([1]; A. baumannii IHMA 2181370, Morocco 2020, MDR, read-out: MIC) | MIC ([1]; A. baumannii IHMA 2183849, Argentina 2020, Non-MDR, read-out: MIC) | MIC ([1]; A. baumannii IHMA 2184382, Japan 2020, Non-MDR, read-out: MIC) | MIC ([1]; A. baumannii IHMA 2193375, Venezuela 2020, MDR, read-out: MIC) | MIC ([1]; A. baumannii IHMA 2193607, Venezuela 2020, MDR, read-out: MIC) | MIC ([1]; A. baumannii IHMA 2195460, Italy 2020, MDR, read-out: MIC) | MIC ([1]; A. baumannii IHMA 2196914, South Africa 2020, MDR, read-out: MIC) | MIC ([1]; A. baumannii IHMA 2196959, South Africa 2020, MDR, read-out: MIC) | MIC ([1]; A. baumannii IHMA 2205144, Korea, South 2020, MDR, read-out: MIC) | MIC ([1]; A. baumannii IHMA 2206459, Taiwan 2020, MDR, read-out: MIC) | MIC ([1]; A. baumannii IHMA 2215307, Hong Kong 2020, Non-MDR, read-out: MIC) | MIC ([1]; A. baumannii IHMA 2216586, Taiwan 2020, MDR, read-out: MIC) | MIC ([1]; A. baumannii IHMA 2223200, Colombia 2020, Non-MDR, read-out: MIC) | MIC ([1]; A. baumannii IHMA 2231797, Greece 2020, MDR, read-out: MIC) | MIC ([1]; A. baumannii IHMA 2233430, Kazakhstan 2020, MDR, read-out: MIC) | MIC ([1]; A. baumannii IHMA 2274234, South Africa 2020, MDR, read-out: MIC) | MIC ([1]; A. baumannii IHMA 2274364, South Africa 2020, MDR, read-out: MIC) | MIC ([1]; A. baumannii IHMA 2275237, Chile 2020, Non-MDR, read-out: MIC) | MIC ([1]; A. baumannii IHMA 2275751, Jordan 2020, MDR, read-out: MIC) | MIC ([1]; A. baumannii IHMA 2316205, United States 2020, MDR, read-out: MIC) | MIC50 ([1]; MDR n = 50) | MIC50 ([1]; all isolates n = 100) | MIC50 ([1]; non-MDR n = 50)
3.8 µM: solubility thermodynamic at 24 h ([2]; pH 7.4, thermodynamic solubility (pH = 7.4)) | solubility thermodynamic at 24 h ([2]; pH 7.4, thermodynamic solubility, Experiment 2)
3.83 µM: solubility thermodynamic at 24 h ([2]; pH 7.4, thermodynamic solubility, Experiment 1)
4 µg/mL: MIC ([1]; A. baumannii IHMA 2157614, Australia 2020, Non-MDR, read-out: MIC) | MIC ([1]; A. baumannii IHMA 2177232, Lithuania 2020, MDR, read-out: MIC) | MIC ([1]; A. baumannii IHMA 2178574, Ukraine 2020, Non-MDR, read-out: MIC) | MIC ([1]; A. baumannii IHMA 2183729, Argentina 2020, MDR, read-out: MIC) | MIC ([1]; A. baumannii IHMA 2203763, Spain 2020, MDR, read-out: MIC) | MIC ([1]; A. baumannii IHMA 2212575, Hungary 2020, Non-MDR, read-out: MIC) | MIC ([1]; A. baumannii IHMA 2224017, Panama 2020, MDR, read-out: MIC) | MIC ([1]; A. baumannii IHMA 2224303, Panama 2020, Non-MDR, read-out: MIC) | MIC ([1]; A. baumannii IHMA 2233099, Guatemala 2020, MDR, read-out: MIC) | MIC ([1]; A. baumannii IHMA 2233548, Kazakhstan 2020, Non-MDR, read-out: MIC) | MIC ([1]; A. baumannii IHMA 2238964, Thailand 2020, MDR, read-out: MIC) | MIC ([1]; A. baumannii IHMA 2239052, Thailand 2020, Non-MDR, read-out: MIC) | MIC ([1]; A. baumannii IHMA 2261047, Belgium 2020, MDR, read-out: MIC) | MIC ([1]; A. baumannii IHMA 2261633, Canada 2020, Non-MDR, read-out: MIC) | MIC ([1]; MDR n = 50, read-out: MAX (maximum MIC; all strains inhibited)) | MIC90 ([1]; MDR n = 50) | MIC90 ([1]; all isolates n = 100) | MIC90 ([1]; non-MDR n = 50) | MAX (maximum MIC; all strains inhibited) ([1]; MDR n = 50)
